Test results as given in patent US10308644B2, “Heterocyclic compounds as immunomodulators” (Incyte Corporation, priority 2016, dated 2019).

The molecules below were run against PD-1/PD-L1 (Homo sapiens (Human), UniProt Q9NZQ7) (assay: PD-1/PD-L1 Homogeneous Time-Resolved Fluorescence (HTRF) Binding Assay). Details: recombinant human PD-1 (3 nM) and PD-L1 (10 nM), 25° C., PBS pH 7.4.
Method in brief: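 Fc-tagged human PD-1 (25-167, 3 nM) and His-tagged PD-L1 (19-238, 10 nM) preincubated with inhibitor 40 min in PBS pH 7.4, 0.05% Tween-20, 0.1% BSA, 1% DMSO, 25 °C. Binding detected by HTRF (Eu anti-IgG/APC anti-His, 665/620 nm) after 60 min; IC50 from percent control activity.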

Chain of PD-1/PD-L1 (Q9NZQ7 19-238): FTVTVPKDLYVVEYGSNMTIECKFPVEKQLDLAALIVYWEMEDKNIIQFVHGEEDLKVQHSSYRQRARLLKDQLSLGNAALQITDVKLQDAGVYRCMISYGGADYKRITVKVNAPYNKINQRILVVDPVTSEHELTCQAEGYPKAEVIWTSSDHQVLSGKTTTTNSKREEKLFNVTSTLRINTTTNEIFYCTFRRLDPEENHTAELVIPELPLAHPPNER

Compound | IC50 [nM]
Cc1c(-c2nc3cc(CN4CC[C@@H](C(=O)O)C4)cc(C#N)c3o2)cccc1-c1cccc(Nc2nccc3cc(C4CCCN4)cnc23)c1Cl (stereo partly drawn) [Example 97, (3R)-1-((2-(2′-chloro-2-methyl-3′-(3-(pyrrolidin-2-yl)-1,7-naphthyridin-8-ylamino)biphenyl-3-yl)-7-cyanobenzo[d]oxazol-5-yl)methyl)pyrrolidine-3-carboxylic acid] | ≤ 10
Cc1c(-c2nc3cc(CN4CC[C@H](C(=O)O)C4)cc(C#N)c3o2)cccc1-c1cccc(NC(=O)c2nc3c(n2C)CN(C)C3)c1Cl [Example 94, (S)-1-((2-(2′-chloro-3′-(1,5-dimethyl-1,4,5,6-tetrahydropyrrolo[3,4-d]imidazole-2-carboxamido)-2-methylbiphenyl-3-yl)-7-cyanobenzo[d]oxazol-5-yl)methyl)pyrrolidine-3-carboxylic acid] | ≤ 10
Cc1c(-c2nc3cc(CN4CC[C@@H](C(=O)O)C4)cc(C#N)c3o2)cccc1-c1cccc(Nc2nccc3cc(CN4CCOC4=O)cnc23)c1Cl [Example 31, (R)-1-((2-(2′-chloro-2-methyl-3′-(3-((2-oxooxazolidin-3-yl)methyl)-1,7-naphthyridin-8-ylamino)biphenyl-3-yl)-7-cyanobenzo[d]oxazol-5-yl)methyl)pyrrolidine-3-carboxylic acid] | ≤ 10
Cc1c(-c2nc3c(o2)CN(C(=O)CN(C)C)C3)cccc1-c1cccc(-c2nc3cc(CN4CCC(C(=O)O)CC4)cc(C#N)c3o2)c1C [Example 246, 1-((7-cyano-2-(3′-(5-(dimethylglycyl)-5,6-dihydro-4H-pyrrolo[3,4-d]oxazol-2-yl)-2,2′-dimethyl-[1,1′-biphenyl]-3-yl)benzo[d]oxazol-5-yl)methyl)piperidine-4-carboxylic acid] | ≤ 10
Cc1c(-c2nc3cc(CN[C@@H](C)C(=O)O)cc(C#N)c3o2)cccc1-c1cccc(NC(=O)c2nc3c(n2C)CCN(C)C3)c1Cl [Example 90, (S)-2-((2-(2′-chloro-3′-(1,5-dimethyl-4,5,6,7-tetrahydro-1H-imidazo[4,5-c]pyridine-2-carboxamido)-2-methylbiphenyl-3-yl)-7-cyanobenzo[d]oxazol-5-yl)methylamino)propanoic acid] | ≤ 10
CCN(C)CC(=O)N1Cc2nc(-c3cccc(-c4cccc(-c5nc6cc(CN7CC[C@@H](C(=O)O)C7)cc(C#N)c6o5)c4C)c3C)sc2C1 [Example 114, (R)-1-((7-cyano-2-(3′-(5-(2-(ethyl(methyl)amino)acetyl)-5,6-dihydro-4H-pyrrolo[3,4-d]thiazol-2-yl)-2,2′-dimethylbiphenyl-3-yl)benzo[d]oxazol-5-yl)methyl)pyrrolidine-3-carboxylic acid] | ≤ 10
Cc1c(Nc2nccc3cc(CN4CC[C@H](O)C4)cnc23)cccc1-c1cccc(-c2nc3cc(CN4CC[C@@H](C(=O)O)C4)cc(C#N)c3o2)c1C [Example 26, (R)-1-((7-cyano-2-(3′-(3-(((S)-3-hydroxypyrrolidin-1-yl)methyl)-1,7-naphthyridin-8-ylamino)-2,2′-dimethylbiphenyl-3-yl)benzo[d]oxazol-5-yl)methyl)pyrrolidine-3-carboxylic acid] | ≤ 10
Cc1c(Nc2nccc3cc(CN4CC[C@@H](O)C4)cnc23)cccc1-c1cccc(-c2nc3cc(CN4CC[C@@H](CC(=O)O)C4)cc(C#N)c3o2)c1C [Example 174, 2-((S)-1-((7-cyano-2-(3′-(3-(((R)-3-hydroxypyrrolidin-1-yl)methyl)-1,7-naphthyridin-8-ylamino)-2,2′-dimethylbiphenyl-3-yl)benzo[d]oxazol-5-yl)methyl)pyrrolidin-3-yl)acetic acid] | ≤ 10
Cc1c(-c2nc3cc(CN4CC[C@H](C(=O)O)C4)cc(C#N)c3o2)cccc1-c1cccc(Nc2nccc3cc(CN4CC[C@H](O)C4)cnc23)c1Cl [Example 33, (S)-1-((2-(2′-chloro-3′-(3-(((S)-3-hydroxypyrrolidin-1-yl)methyl)-1,7-naphthyridin-8-ylamino)-2-methylbiphenyl-3-yl)-7-cyanobenzo[d]oxazol-5-yl)methyl)pyrrolidine-3-carboxylic acid] | ≤ 10
Cc1c(-c2nc3cc(CN4CC[C@@H](C(=O)O)C4)cc(C#N)c3o2)cccc1-c1cccc(-c2nc3c(s2)CN(C)CC3)c1C [Example 73] | ≤ 10
Cc1c(Nc2nccc3cc(CN4CC[C@@H](O)C4)cnc23)cccc1-c1cccc(-c2nc3cc(CNCCC(=O)O)cc(C#N)c3o2)c1C [Example 101, (R)-3-((7-cyano-2-(3′-(3-((3-hydroxypyrrolidin-1-yl)methyl)-1,7-naphthyridin-8-ylamino)-2,2′-dimethylbiphenyl-3-yl)benzo[d]oxazol-5-yl)methylamino)propanoic acid] | ≤ 10

Other lines, results leading:

IC50 [nM] | Compound
≤ 10 | Cc1c(-c2nc3cc(CN4CCC(C(=O)O)CC4)cc(C#N)c3o2)cccc1-c1cccc(-c2nc3c(s2)CN(C(=O)CN(C)C)C3)c1C [Example 236, 1-((7-cyano-2-(3′-(5-(2-(dimethylamino)acetyl)-5,6-dihydro-4H-pyrrolo[3,4-d]thiazol-2-yl)-2,2′-dimethylbiphenyl-3-yl)benzo[d]oxazol-5-yl)methyl)piperidine-4-carboxylic acid]
≤ 10 | Cc1c(-c2nc3cc(CN4CC[C@@](C)(C(=O)O)C4)cc(C#N)c3o2)cccc1-c1cccc(-c2nc3c(s2)CN(C(=O)CN(C)CCO)C3)c1C [Example 224, (R)-1-((7-cyano-2-(3′-(5-(2-((2-hydroxyethyl) (methyl)amino)acetyl)-5,6-dihydro-4H-pyrrolo[3,4-d]thiazol-2-yl)-2,2′-dimethylbiphenyl-3-yl)benzo[d]oxazol-5-yl)methyl)-3-methylpyrrolidine-3-carboxylic acid]
≤ 10 | Cc1c(-c2nc3cc(CN4CC[C@@H](O)C4)cc(C#N)c3o2)cccc1-c1cccc(NC(=O)c2nc3c(n2C)CCN(CC24CC(C(=O)O)(C2)C4)C3)c1Cl [Example 262, (R)-3-((2-(2-chloro-3′-(7-cyano-5-((3-hydroxypyrrolidin-1-yl)methyl)benzo[d]oxazol-2-yl)-2′-methylbiphenyl-3-yl-carbamoyl)-1-methyl-6,7-dihydro-1H-imidazo[4,5-c]pyridin-5(4H)-yl)methyl)bicyclo[1.1.1]-pentane-1-carboxylic acid]
≤ 10 | Cc1c(-c2nc3c(o2)CN(C(=O)CN2CC4CC2CN4C)C3)cccc1-c1cccc(-c2nc3cc(CN4CC[C@@H](C(=O)O)C4)cc(C#N)c3o2)c1C (stereo partly drawn) [Example 255, (3R)-1-((7-cyano-2-(2,2′-dimethyl-3′-(5-(2-(5-methyl-2,5-diazabicyclo[2.2.1]heptan-2-yl)acetyl)-5,6-dihydro-4H-pyrrolo[3,4-d]oxazol-2-yl)biphenyl-3-yl)benzo[d]oxazol-5-yl)methyl)pyrrolidine-3-carboxylic acid]
≤ 10 | Cc1c(Nc2nccc3cc(CN[C@@H](C)CO)cnc23)cccc1-c1cccc(-c2nc3cc(CN4CCC(C(=O)O)CC4)cc(C#N)c3o2)c1C [Example 201, (S)-1-((7-cyano-2-(3′-(3-((1-hydroxypropan-2-ylamino)methyl)-1,7-naphthyridin-8-ylamino)-2,2′-dimethylbiphenyl-3-yl)benzo[d]oxazol-5-yl)methyl)piperidine-4-carboxylic acid]
≤ 10 | Cc1c(-c2nc3cc(CN4CC[C@@H](O)C4)cc(C#N)c3o2)cccc1-c1cccc(NC(=O)c2nc3c(n2C)CCN(CC2CCC(C)(C(=O)O)CC2)C3)c1Cl (single isomer, unassigned; peak 2) [Example 269]
